Like-named read-outs stand apart in the source and are kept apart here. Values belong to the compound of their own block, whether it stands above or below them.
Assays:
MV4-11 cell lines [1] = assay: AC220 in combination with daunorubicin, cell viability study (CellTiter-Blue); type: cell-based; conditions: Homo sapiens; MV4-11, AC220 alone
Description: (§1) In this assay, the sequence of administration of AC220 and daunorubicin was examined for its cytotoxic effect. For the combination schedules tested, MV4-11 cell lines were cultured in RPMI medium with 10% fetal bovine serum and penicillin/streptomycin to a density of 3e5/mL to 1e6/mL and plated at 6e5 cells per well. […] Cytotoxicity was assessed using the CellTiter-Blue™ Viability Assay (#G8081 Promega). A combination index (CI) value was generated for each combination experiment using a commercially available software program (Calcusyn; Biosoft, Manchester, United Kingdom). The interaction of the two agents was analyzed using the median effect method of Chou and Talalay (Adv. Enyme Regul. 1984; 22:27-55).

[2] = system: MV4-11 solid tumor flank model; assay: Efficacy study of AC220 plus cytarabine in the MV4-11 solid tumor flank model; type: in vivo, SCID mouse; conditions: for sustained complete regressions: either agent alone (Groups 3 and 5): cytarabine 30 mkd IP Day 1 to 10, AC220 1 mkd PO Day 1 to 24
Description: Dosing was initiated on day 14 post-inoculation with groups of 10 animals per arm. The size of the tumors averaged about 222 mm^3. […] Cytarabine was delivered in a formulation of sterile saline (5 ml/kg/day, prepared weekly) at about 30 or about 60 mkd, QD, IP, and dose was adjusted for body weight. […] The clinical signs and body weight were measured twice weekly. White blood cell (WBC) counts determined at the end of the cytarabine dosing period and again 7 days post drug treatment. The study was carried out in one or multiple treatment cycles with cytarabine delivered for 10 days on each 24 day cycle. […] [table]

MV4-11 cell lines [3] = assay: AC220 in combination with cladribine, cell viability study (CellTiter-Blue); type: cell-based; conditions: Homo sapiens; MV4-11, AC220 alone
Description: as §1, with “cladribine” for “daunorubicin”, “Iscove” for “RPMI”, “3e5/mL” for “3e5/mL to 1e6/mL”, “6e4” for “6e5”

MV4-11 cell lines [4] = assay: AC220 in combination with etoposide, cell viability study (CellTiter-Blue); type: cell-based; conditions: Homo sapiens; MV4-11, AC220 alone
Description: as §1, with “etoposide” for “daunorubicin”, “22:27-55). The Combination index and Weighted combination index were calculated as described in Chou, Pharmacol. Rev. 58:621-681, 2006.” for “22:27-55).”
As described by Chou, supra, the ranges of CI indicate synergism, additive effect, and antagonism as follows:
CI<1—synergism, CI=1—additive effect, and CI>1—antagonism.

[5] = system: MV4-11 solid tumor flank model; assay: In vivo study of AC220 plus Aza-C in the MV4-11 solid tumor flank model; set-up: species or system SCID mouse; conditions: for flank tumor volume: AC220 0.5 mkd PO
Description: The size of the tumors averaged about 230 mm^3. […] Aza-C was delivered in a formulation of sterile saline (10 ml/kg/day, prepared in 5-day batches) at about 3 or about 1 mkd, QD, IP, and dose was adjusted for body weight. The average group starting body weight was about 20.6 g. The clinical signs and body weight were measured twice weekly. White blood cell (WBC) counts determined at the end of the Aza-C dosing period and again 7 days post drug treatment. The study was carried out in one or multiple treatment cycles with Aza-C delivered for 5 days on each 15 day cycle. […] [table]

MV4-11 cell lines [6] = assay: AC220 in combination with cytarabine, cell viability study (CellTiter-Blue); type: cell-based; conditions: Homo sapiens; MV4-11, AC220 alone
Description: In this assay, the sequence of administration of AC220 and cytarabine was examined for its cytotoxic effect. For the combination schedules tested, MV4-11 cell lines were cultured in Iscove medium with 10% fetal bovine serum and penicillin/streptomycin to a density of 3e5/mL and plated at 6e4 cells per well. […] Cytotoxicity was assessed using the CellTiter-Blue™ Viability Assay (#G8081 Promega). A combination index (CI) value was generated for each combination experiment using a commercially available software program (Calcusyn; Biosoft, Manchester, United Kingdom). The interaction of the two agents was analyzed using the median effect method of Chou and Talalay (Adv. Enyme Regul. 1984; 22:27-55).

MV4-11 cell lines [7] = conditions: MV4-11, cladribine alone; read-out: reported EC50 value; cited from earlier work
MV4-11 cell lines [8] = conditions: MV4-11, cytarabine alone; read-out: reported EC50 value; cited from earlier work
MV4-11 cell lines [9] = conditions: MV4-11, daunorubicin alone; read-out: reported EC50 value; cited from earlier work
MV4-11 cell lines [10] = conditions: MV4-11, etoposide alone; read-out: reported EC50 value; cited from earlier work

EC50 (MV4-11 cell lines [1]): 0.35 nM | EC50 (MV4-11 cell lines [3]): 0.35 nM | EC50 (MV4-11 cell lines [4]): 0.35 nM | EC50 (MV4-11 cell lines [6]): 0.35 nM
SMILES: CC(C)(C)c1cc(NC(=O)Nc2ccc(-c3cn4c(n3)sc3cc(OCCN5CCOCC5)ccc34)cc2)no1 [AC220, N-(5-tert-butyl-isoxazol-3-yl)-N′-{4-[7-(2-morpholin-4-yl-ethoxy)imidazo[2,1-b][1,3]benzothiazol-2-yl]phenyl}urea]
sustained complete regressions [2]: no sustained complete regressions | flank tumor volume ([5]; treatment at 15 days post inoculation): tumor stasis | flank tumor volume ([5]; treatment at 20 days post inoculation): tumor stasis

SMILES: Nc1ncn([C@@H]2O[C@H](CO)[C@@H](O)[C@H]2O)c(=O)n1 [Aza-C, azacitidine]
reduction in tumor volume ([5]; Aza-C at the 3 mkg dose, IP, Day 1 to 5): ~50%

SMILES: Nc1nc(Cl)nc2c1ncn2[C@H]1C[C@H](O)[C@@H](CO)O1 [cladribine]
EC50 (MV4-11 cell lines [7]): 16.2 nM

SMILES: Nc1ccn([C@@H]2O[C@H](CO)[C@@H](O)[C@@H]2O)c(=O)n1 [cytarabine]
sustained complete regressions [2]: no sustained complete regressions | tumor burden ([2]; sequential, second administration of Ara-C in animals that had 2 weeks of AC220 treatment): capable of reducing tumor burden | EC50 (MV4-11 cell lines [8]): 380 nM

SMILES: COc1cccc2c1C(=O)c1c(O)c3c(c(O)c1C2=O)C[C@@](O)(C(C)=O)C[C@@H]3O[C@H]1C[C@H](N)[C@H](O)[C@H](C)O1 [daunorubicin]
EC50 (MV4-11 cell lines [9]): 12.7 nM

SMILES: COc1cc([C@@H]2c3cc4c(cc3[C@@H](O[C@@H]3O[C@@H]5CO[C@@H](C)O[C@H]5[C@H](O)[C@H]3O)[C@H]3COC(=O)[C@H]23)OCO4)cc(OC)c1O [etoposide]
EC50 (MV4-11 cell lines [10]): 34.6 nM

— patent publication US8836218B2, “Methods of treatment using combination therapy” (Ambit Biosciences Corp., priority 2009, dated 2014)
